Measured values reported in patent US9481654B2, “Compositions and methods for inhibition of the JAK pathway” (Rigel Pharmaceuticals, Inc., priority 2006, dated 2016).

Legend:
[1] = system: IFNγ induced ICAM-1 (CD54) up-regulation in U937 human monocytic cells (JAK/Stat pathway); assay: U937 IFNγ ICAM1 FACS Assay; assay type: cell-based; settings: Table III Example 6; 10 ng/mL IFNγ, 18-24 hours
Outline: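 U937 cells (100,000 per well) were pre-incubated 30 min at 37 °C with serially 3-fold diluted compound, then stimulated with IFNγ for 18–24 h. Surface ICAM-1 was measured by flow cytometry as the geometric mean of ICAM-APC on gated live cells. EC50 values were calculated from dose curves, with % live cells also recorded.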

[2] = system: IFNγ induced ICAM-1 (CD54) up-regulation in A549 lung epithelial cells (JAK/Stat pathway); assay: A549 Epithelial Line Stimulated with IFNγ (ICAM-1 surface expression, flow cytometry); assay type: cell-based, human; settings: Table III Example 5
Excerpt: The activity of the compounds of the invention may additionally be characterized by assaying the effect of the 2,4-pyrimidinediamine compounds described herein on A549 lung epithelial cells and U937 cells. A549 lung epithelial cells and U937 cells up-regulate ICAM-1 (CD54) surface expression in response to a variety of different stimuli. Therefore, using ICAM-1 expression as readout, test compound effects on different signaling pathways can be assessed in the same cell type. Stimulation with IL-1β through the IL-1β receptor activates the TRAF6/NFκB pathway resulting in up-regulation of ICAM-1. IFNγ induces ICAM-1 up-regulation through activation of the JAK1/JAK2 pathway. The up-regulation of ICAM-1 can be quantified by flow cytometry across a compound dose curve and EC50 values are calculated. Exemplary assays of this type are described in greater detail in Examples 5 and 6.
A549 lung epithelial cells up-regulate ICAM-1 (CD54) surface expression in response to a variety of different stimuli. Therefore, using ICAM-1 expression as readout, compound effects on different signaling pathways can be assessed in the same cell type. IFNγ up-regulates ICAM-1 through activation of the JAK/Stat pathway. In this example, the up-regulation of ICAM-1 by IFNγ was assessed.
The A549 lung epithelial carcinoma cell line originated from the American Type Culture Collection. Routine culturing was with F12K media (Mediatech Inc., Lenexa, Kans., Cat. No. 10-025-CV) with 10% fetal bovine serum, 100 I.U. penicillin and […] streptomycin (complete F12k media). Cells were incubated in a humidified atmosphere of 5% CO2 at 37° C. Prior to use in the assay, A549 cells were washed with PBS and trypsinized (Mediatech Inc., Cat. No. 25-052-CI) to lift the cells. The trypsin cell suspension was neutralized with complete F12K media and centrifuged to pellet the cells. The cell pellet was resuspended in complete F12K media at a concentration of 2.0×10^5/mL. Cells were seeded at 20,000 per well, 100 μL total volume, in a flat bottom tissue culture plate and allowed to adhere overnight.
On day two, A549 cells were pre-incubated with a 2,4-pyrimidinediamine test compound or DMSO (control) (Sigma-Aldrich, St. Louis, Mo., Catalog No. D2650) for 1 hour. The cells were then stimulated with IFNγ (75 ng/mL) (Peprotech Inc., Rocky Hill, N.J., Cat. No. 300-02) and allowed to incubate for 24 hours. The final test compound dose range was 30 μM to 14 nM in 200 μL F12K media containing 5% FBS, 0.3% DMSO.
On day three, the cell media was removed and the cells were washed with 200 μL PBS (phosphate buffered saline). Each well was trypsinized to dissociate the cells, then neutralized by addition of 200 μL complete F12K media. Cells were pelleted and stained with an APC conjugated mouse anti-human ICAM-1 (CD54) (BD Pharmingen, San Diego, Calif., Catalog #559771) antibody for 20 minutes at 4° C. Cells were washed with ice cold FACS buffer (PBS+2% FBS) and surface ICAM-1 expression was analyzed by flow cytometry. Detection was performed using a BD LSR I System Flow Cytometer, purchased from BD Biosciences of San Jose, Calif. Events were gated for live scatter and the geometric mean was calculated (Becton-Dickinson CellQuest software version 3.3, Franklin Lakes, N.J.). Geometric means were plotted against the compound concentration to generate a dose response curve.

Structure (SMILES) | IC50 [1] | IC50 [2]
CCS(=O)(=O)NCCc1ccc(Nc2nc(Nc3ccc(C)c(S(N)(=O)=O)c3)ncc2C)cc1 [Compound I-40, N2-(3-aminosulfonyl-4-methyl)phenyl-N4-[4-(2-ethylsulfonylamino)ethyl]phenyl-5-methyl-2,4-pyrimidinediamine] | 0.341 µM | 3.49 µM
Cc1ccc(Nc2ncc(C)c(Nc3ccc(CNS(=O)(=O)C4CC4)cc3)n2)cc1S(N)(=O)=O [Compound I-47, N2-(3-aminosulfonyl-4-methyl)phenyl-N4-(4-cyclopropylsulfonylaminomethyl)phenyl-5-methyl-2,4-pyrimidinediamine] | 0.104 µM | 2.89 µM
NS(=O)(=O)c1ccc(Nc2ncc(F)c(Nc3ccc(CNS(=O)(=O)CC(F)(F)F)cc3)n2)cc1 [Compound I-48, N2-(4-aminosulfonyl)phenyl-5-fluoro-N4-(4-trifluoroethylsulfonylaminomethyl)phenyl-2,4-pyrimidinediamine] | 3.76 µM | 29.9 µM
NS(=O)(=O)c1cccc(Nc2ncc(F)c(Nc3ccc(CNS(=O)(=O)CC(F)(F)F)cc3)n2)c1 [Compound I-49, N2-(3-aminosulfonyl)phenyl-5-fluoro-N4-(4-trifluoroethylsulfonylaminomethyl)phenyl-2,4-pyrimidinediamine] | 0.836 µM | 78.9 µM
Cc1ccc(Nc2ncc(F)c(Nc3ccc(CNS(=O)(=O)CC(F)(F)F)cc3)n2)cc1S(N)(=O)=O [Compound I-50, N2-(3-aminosulfonyl-4-methyl)phenyl-5-fluoro-N4-(4-trifluoroethylsulfonylaminomethyl)phenyl-2,4-pyrimidinediamine] | 0.547 µM | 9.35 µM
Cc1cnc(Nc2cccc(S(N)(=O)=O)c2)nc1Nc1cccc(CNS(=O)(=O)C2CC2)c1 [Compound I-51, N2-(3-aminosulfonyl)phenyl-N4-(3-cyclopropylsulfonylaminomethyl)phenyl-5-methyl-2,4-pyrimidinediamine] | 0.324 µM | 2.8 µM
Cc1ccc(Nc2ncc(C)c(Nc3cccc(CNS(=O)(=O)C4CC4)c3)n2)cc1S(N)(=O)=O [Compound I-52, N2-(3-aminosulfonyl-4-methyl)phenyl-N4-(3-cyclopropylsulfonylaminomethyl)phenyl-5-methyl-2,4-pyrimidinediamine] | 0.203 µM | 2.55 µM
Cc1cnc(Nc2cccc(S(N)(=O)=O)c2)nc1Nc1ccc(CCNS(=O)(=O)C2CC2)cc1 [Compound I-54, N2-(3-aminosulfonyl)phenyl-N4-[4-(2-cyclopropylsulfonylamino)ethyl]phenyl-5-methyl-2,4-pyrimidinediamine] | 0.389 µM | 4.69 µM
Cc1ccc(Nc2ncc(C)c(Nc3ccc(CCNS(=O)(=O)C4CC4)cc3)n2)cc1S(N)(=O)=O [Compound I-55, N2-(3-aminosulfonyl-4-methyl)phenyl-N4-[4-(2-cyclopropylsulfonylamino)ethyl]phenyl-5-methyl-2,4-pyrimidinediamine] | 0.36 µM | 3.88 µM
Cc1ccc(Nc2ncc(F)c(Nc3ccc(CNS(=O)(=O)C(C)C)cc3)n2)cc1S(N)(=O)=O [Compound I-67, N2-(3-aminosulfonyl-4-methyl)phenyl-5-fluoro-N4-(4-isopropylsulfonylaminomethyl)phenyl-2,4-pyrimidinediamine] | 0.321 µM | 3.29 µM
NS(=O)(=O)c1ccc(Nc2ncc(F)c(Nc3ccc(CNS(=O)(=O)C4CCCC4)cc3)n2)cc1 [Compound I-68, N2-(4-aminosulfonyl)phenyl-N4-(4-cyclopentylsulfonylaminomethyl)phenyl-5-fluoro-2,4-pyrimidinediamine] | 0.289 µM | 4.95 µM
NS(=O)(=O)c1cccc(Nc2ncc(F)c(Nc3ccc(CNS(=O)(=O)C4CCCC4)cc3)n2)c1 [Compound I-69, N2-(3-aminosulfonyl)phenyl-N4-(4-cyclopentylsulfonylaminomethyl)phenyl-5-fluoro-2,4-pyrimidinediamine] | 0.176 µM | 7.76 µM
Cc1ccc(Nc2ncc(F)c(Nc3ccc(CNS(=O)(=O)C4CCCC4)cc3)n2)cc1S(N)(=O)=O [Compound I-70, N2-(3-aminosulfonyl-4-methyl)phenyl-N4-(4-cyclopentylsulfonylaminomethyl)phenyl-5-fluoro-2,4-pyrimidinediamine] | 0.159 µM | 2.58 µM
NS(=O)(=O)c1ccc(Nc2ncc(F)c(Nc3ccc(CNS(=O)(=O)C4CCCCC4)cc3)n2)cc1 [Compound I-71, N2-(4-aminosulfonyl)phenyl-N4-(4-cyclohexylsulfonylaminomethyl)phenyl-5-fluoro-2,4-pyrimidinediamine] | 0.401 µM | 10.5 µM
NS(=O)(=O)c1cccc(Nc2ncc(F)c(Nc3ccc(CNS(=O)(=O)C4CCCCC4)cc3)n2)c1 [Compound I-72, N2-(3-aminosulfonyl)phenyl-N4-(4-cyclohexylsulfonylaminomethyl)phenyl-5-fluoro-2,4-pyrimidinediamine] | 0.204 µM | 2.66 µM
Cc1ccc(Nc2ncc(F)c(Nc3ccc(CNS(=O)(=O)C4CCCCC4)cc3)n2)cc1S(N)(=O)=O [Compound I-73, N2-(3-aminosulfonyl-4-methyl)phenyl-N4-(4-cyclohexylsulfonylaminomethyl)phenyl-5-fluoro-2,4-pyrimidinediamine] | 0.311 µM | 3.57 µM
CCCN(Cc1ccc(Nc2nc(Nc3cccc(S(N)(=O)=O)c3)ncc2C)cc1)S(=O)(=O)C1CC1 [Compound I-80, N2-(3-aminosulfonyl)phenyl-N4-[4-(N-cyclopropylsulfonyl-N-propylamino)methyl]phenyl-5-methyl-2,4-pyrimidinediamine] | 0.143 µM | 4.13 µM
Cc1cnc(Nc2cc(S(N)(=O)=O)cc(S(N)(=O)=O)c2)nc1Nc1ccc(CNS(=O)(=O)C2CC2)cc1 [Compound I-84, N4-(4-cyclopropylsulfonylaminomethyl)phenyl-N2-(3,5-diaminosulfonyl)phenyl-5-methyl-2,4-pyrimidinediamine] | 0.928 µM | 9.53 µM
Cc1cnc(Nc2cccc(S(N)(=O)=O)c2)nc1Nc1ccc(CNS(=O)(=O)CC(F)(F)F)cc1 [Compound I-97, N2-(3-aminosulfonyl)phenyl-5-methyl-N4-(4-trifluoroethylsulfonylaminomethyl)phenyl-2,4-pyrimidinediamine] | 0.257 µM | 13.3 µM
Cc1ccc(Nc2ncc(Cl)c(Nc3ccc(CNS(=O)(=O)C4CC4)cc3)n2)cc1S(N)(=O)=O [Compound I-113, N2-(3-aminosulfonyl-4-methyl)phenyl-5-chloro-N4-(4-cyclopropylsulfonylaminomethyl)phenyl-2,4-pyrimidinediamine] | 0.0471 µM | 0.888 µM
NS(=O)(=O)c1cccc(Nc2ncc(Cl)c(Nc3ccc(CNS(=O)(=O)C4CC4)cc3)n2)c1 [Compound I-114, N2-(3-aminosulfonyl)phenyl-5-chloro-N4-(4-cyclopropylsulfonylaminomethyl)phenyl-2,4-pyrimidinediamine] | 0.0517 µM | 5.65 µM
NS(=O)(=O)c1ccc(Nc2ncc(Cl)c(Nc3ccc(CNS(=O)(=O)C4CC4)cc3)n2)cc1 [Compound I-115, N2-(4-aminosulfonyl)phenyl-5-chloro-N4-(4-cyclopropylsulfonylaminomethyl)phenyl-2,4-pyrimidinediamine] | 0.105 µM | 2.72 µM
